Reference: PubChem BioAssay AID248 (DTP/NCI, 2004)
“And” between values parts separate entries of the source, which are not always exact repeats. Identical values can stand only once. Inconclusive results and toxic doses are left out. No stated cut-off is given here; in the data, active means T/C of 150% or more; inactive means T/C below 125%.

System: L1210 leukemia ip in BDF1 mice, survival T/C
Experiment: NCI In Vivo Anticancer Drug Screen. Data for tumor model L1210 Leukemia (intraperitoneal) in B6D2F1 (BDF1) mice
Details: endpoint: mean survival time, higher = longer survival
In short: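 Ratio derived from survival: compound-dosed mice over vehicle-dosed mice, all bearing a transplantable tumor.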

[1] = dose: 100.0 mg/kg/injection, schedule: Q01DX009 (ip), vehicle: Klucel (hydroxypropylcellulose) (HPC)
[2] = dose: 100.0 mg/kg/injection, schedule: Q04DX003 (ip), vehicle: Klucel (hydroxypropylcellulose) (HPC)
[3] = dose: 200.0 mg/kg/injection, schedule: Q01DX009 (ip), vehicle: Klucel (hydroxypropylcellulose) (HPC)
[4] = dose: 200.0 mg/kg/injection, schedule: Q04DX003 (ip), vehicle: Klucel (hydroxypropylcellulose) (HPC)
[5] = dose: 400.0 mg/kg/injection, schedule: Q01DX009 (ip), vehicle: Klucel (hydroxypropylcellulose) (HPC)
[6] = dose: 400.0 mg/kg/injection, schedule: Q04DX003 (ip), vehicle: Klucel (hydroxypropylcellulose) (HPC)
[7] = dose: 100.0 mg/kg/injection, schedule: Q01DX001 (ip), vehicle: saline with Tween-80
[8] = dose: 200.0 mg/kg/injection, schedule: Q01DX001 (ip), vehicle: saline with Tween-80
[9] = dose: 25.0 mg/kg/injection, schedule: Q01DX009 (ip), vehicle: saline with Tween-80
[10] = dose: 50.0 mg/kg/injection, schedule: Q01DX009 (ip), vehicle: saline with Tween-80
[11] = dose: 100.0 mg/kg/injection, schedule: Q04DX003 (ip), vehicle: saline with Tween-80
[12] = dose: 200.0 mg/kg/injection, schedule: Q04DX003 (ip), vehicle: saline with Tween-80
[13] = dose: 100.0 mg/kg/injection, schedule: Q04DX003 (ip), vehicle: saline
[14] = dose: 200.0 mg/kg/injection, schedule: Q04DX003 (ip), vehicle: saline
[15] = dose: 400.0 mg/kg/injection, schedule: Q04DX003 (ip), vehicle: saline
[16] = dose: 100.0 mg/kg/injection, schedule: Q01DX001 (ip), vehicle: Klucel (hydroxypropylcellulose) (HPC)
[17] = dose: 200.0 mg/kg/injection, schedule: Q01DX001 (ip), vehicle: Klucel (hydroxypropylcellulose) (HPC)
[18] = dose: 400.0 mg/kg/injection, schedule: Q01DX001 (ip), vehicle: Klucel (hydroxypropylcellulose) (HPC)

Measured: T/C

COc1ccc(C=O)c(O)c1
inactive: [1] 92 % of control | [2] 97 % of control | [3] 103 % of control | [4] 101 % of control | [5] 95 % of control | [6] 105 % of control

c1ccc(-n2ncc3ccccc32)cc1
inactive: dose: 50.0 mg/kg/injection, schedule: Q01DX001 (ip), vehicle: saline with Tween-80 100 % of control | [7] 100 % of control | [8] 96 % of control

O=S1(=O)N=C(Sc2ccccc2)c2ccccc21
inactive: dose: 100.0 mg/kg/injection, schedule: Q04DX002 (ip), vehicle: saline with Tween-80 102 % of control | dose: 200.0 mg/kg/injection, schedule: Q04DX002 (ip), vehicle: saline with Tween-80 98 % of control | dose: 400.0 mg/kg/injection, schedule: Q04DX002 (ip), vehicle: saline with Tween-80 98 % of control

C=C(Cl)c1c(C)cc(C)cc1C
inactive: [9] 98 % of control | [10] 104 % of control | dose: 100.0 mg/kg/injection, schedule: Q01DX009 (ip), vehicle: saline with Tween-80 98 % of control and 88 % of control | [11] 97 % of control | [12] 86 % of control

c1ccc(C2SC(c3ccccc3)SC(c3ccccc3)S2)cc1 (centres undefined)
inactive: dose: 100.0 mg/kg/injection, schedule: Q01DX001 (ip), vehicle: saline 90 % of control | dose: 200.0 mg/kg/injection, schedule: Q01DX001 (ip), vehicle: saline 88 % of control | dose: 400.0 mg/kg/injection, schedule: Q01DX001 (ip), vehicle: saline 92 % of control

N#Cc1ccccc1NC(=O)N(CCCl)N=O
inactive: dose: 2.0 mg/kg/injection, schedule: Q01DX001 (ip), vehicle: carboxymethylcellulose (CMC) 119 % of control | dose: 13.0 mg/kg/injection, schedule: Q01DX009 (ip), vehicle: carboxymethylcellulose (CMC) 124 % of control | dose: 13.3 mg/kg/injection, schedule: Q01DX001 (ip), vehicle: carboxymethylcellulose (CMC) 120 % of control | dose: 20.0 mg/kg/injection, schedule: Q01DX009 (ip), vehicle: carboxymethylcellulose (CMC) 105 % of control | dose: 30.0 mg/kg/injection, schedule: Q01DX009 (ip), vehicle: carboxymethylcellulose (CMC) 108 % of control

CCC/C(=C\C(=O)O)CC
inactive: [1] 94 % of control | [2] 93 % of control | [3] 96 % of control | [4] 90 % of control | [5] 96 % of control | [6] 98 % of control

CN(C)c1ncnc2c1ncn2Cc1ccccc1
inactive: [7] 92 % of control | [8] 96 % of control

COCC1OC(OC(=O)c2ccccc2)C(OC(=O)c2ccccc2)C(OC(=O)c2ccccc2)C1OC (centres undefined)
inactive: dose: 12.5 mg/kg/injection, schedule: Q01DX009 (ip), vehicle: saline with Tween-80 97 % of control | [9] 95 % of control | [10] 93 % of control

CCOC(=O)c1ccc2c(c1)Cc1c-2cc(Br)c(N)c1Br
inactive: dose: 100.0 mg/kg/injection, schedule: Q01DX001 (ip), vehicle: carboxymethylcellulose (CMC) 100 % of control | dose: 200.0 mg/kg/injection, schedule: Q01DX001 (ip), vehicle: carboxymethylcellulose (CMC) 102 % of control | dose: 400.0 mg/kg/injection, schedule: Q01DX001 (ip), vehicle: carboxymethylcellulose (CMC) 91 % of control

C=CCOCC(O)CN(CCCC)CCCC (centres undefined)
inactive: [9] 95 % of control | [10] 97 % of control

O=C(/C=C(\C(=O)c1ccccc1)c1ccccc1)c1ccc(-c2ccccc2)cc1
inactive: dose: 100.0 mg/kg/injection, schedule: Q04DX002 (ip), vehicle: Klucel (hydroxypropylcellulose) (HPC) 97 % of control | dose: 200.0 mg/kg/injection, schedule: Q04DX002 (ip), vehicle: Klucel (hydroxypropylcellulose) (HPC) 101 % of control | dose: 400.0 mg/kg/injection, schedule: Q04DX002 (ip), vehicle: Klucel (hydroxypropylcellulose) (HPC) 93 % of control

CCOC(=O)C(CC(C(=O)OCC)C(=O)OCC)C(=O)OCC
inactive: dose: 75.0 mg/kg/injection, schedule: Q01DX009 (ip), vehicle: saline 98 % of control | [13] 113 % of control | dose: 150.0 mg/kg/injection, schedule: Q01DX009 (ip), vehicle: saline 98 % of control | [14] 97 % of control | dose: 300.0 mg/kg/injection, schedule: Q01DX009 (ip), vehicle: saline 95 % of control | [15] 97 % of control

CCCCOCCOCCOC(C)Oc1ccc(C(=O)OC)cc1 (centres undefined)
inactive: dose: 100.0 mg/kg/injection, schedule: Q04DX002 (ip), vehicle: saline 92 % of control | dose: 200.0 mg/kg/injection, schedule: Q04DX002 (ip), vehicle: saline 99 % of control | dose: 400.0 mg/kg/injection, schedule: Q04DX002 (ip), vehicle: saline 101 % of control

COc1ccc(-c2oc3cc4c(cc3c2-c2ccc(OC)cc2)CCCC4)cc1
inactive: [11] 98 % of control | [12] 98 % of control | dose: 400.0 mg/kg/injection, schedule: Q04DX003 (ip), vehicle: saline with Tween-80 102 % of control

C=C(Br)CN1C(=O)c2ccccc2C1=O
inactive: dose: 100.0 mg/kg/injection, schedule: Q01DX009 (ip), vehicle: saline 89 % of control | [13] 101 % of control | dose: 200.0 mg/kg/injection, schedule: Q01DX009 (ip), vehicle: saline 112 % of control | [14] 104 % of control | dose: 400.0 mg/kg/injection, schedule: Q01DX009 (ip), vehicle: saline 87 % of control | [15] 93 % of control

CCCCCCCCCCCCCCCCCCOC(=O)Cc1ccc(N(CCCl)CCCl)cc1
inactive: [1] 105 % of control | [2] 100 % of control | [3] 110 % of control | [4] 109 % of control | [5] 115 % of control | [6] 105 % of control

CCN(CC)/N=N/c1nc[nH]c1C(N)=O
inactive: dose: 12.5 mg/kg/injection, schedule: Q01DX009 (ip), vehicle: water 100 % of control | dose: 25.0 mg/kg/injection, schedule: Q01DX009 (ip), vehicle: Klucel (hydroxypropylcellulose) (HPC) 117 % of control | dose: 25.0 mg/kg/injection, schedule: Q01DX009 (ip), vehicle: water 101 % of control | dose: 50.0 mg/kg/injection, schedule: Q01DX001 (ip), vehicle: water 102 % of control | dose: 50.0 mg/kg/injection, schedule: Q01DX009 (ip), vehicle: Klucel (hydroxypropylcellulose) (HPC) 111 % of control | dose: 50.0 mg/kg/injection, schedule: Q01DX009 (ip), vehicle: water 98 % of control and 104 % of control | dose: 50.0 mg/kg/injection, schedule: Q04DX003 (ip), vehicle: water 101 % of control | [16] 104 % of control | dose: 100.0 mg/kg/injection, schedule: Q01DX001 (ip), vehicle: water 103 % of control | [1] 114 % of control | dose: 100.0 mg/kg/injection, schedule: Q01DX009 (ip), vehicle: water 105 % of control and 86 % of control | [2] 102 % of control | dose: 100.0 mg/kg/injection, schedule: Q04DX003 (ip), vehicle: water 102 % of control | [17] 101 % of control | dose: 200.0 mg/kg/injection, schedule: Q01DX001 (ip), vehicle: water 100 % of control | [4] 108 % of control | dose: 200.0 mg/kg/injection, schedule: Q04DX003 (ip), vehicle: water 110 % of control | [18] 113 % of control | dose: 400.0 mg/kg/injection, schedule: Q01DX001 (ip), vehicle: water 113 % of control | [6] 119 % of control | dose: 400.0 mg/kg/injection, schedule: Q04DX003 (ip), vehicle: water 111 % of control

O=S(=O)(SSS(=O)(=O)c1ccc(Cl)cc1)c1ccc(Cl)cc1
inactive: [13] 90 % of control | [14] 90 % of control | [15] 90 % of control

Nc1nc(N)c(CCCOc2ccc(NC(=O)c3cc(S(=O)(=O)F)ccc3Cl)cc2)c(N)n1
inactive: [16] 99 % of control | [17] 99 % of control | [18] 105 % of control

COc1cc(O)c(OC)cc1O
inactive: [1] 100 % of control | [2] 105 % of control | [3] 103 % of control | [4] 103 % of control | [5] 97 % of control | [6] 102 % of control

O=c1oc2ccc(O)cc2c2ccccc12
inactive: [13] 105 % of control | [14] 97 % of control | [15] 103 % of control
